Data taken from patent US20100317613A1, “ACTIVITY ENHANCER FOR DETOXIFYING ENZYME” (TAKARA BIO INC., priority 2006, published 2010).

Columns and labels:
mouse = assay: Single oral dose toxicity in mouse; format: in vivo; details: oral, 2,000 mg/kg body weight as a single dose
Procedure: For example, in the case of oral administration, there is no fatal case when agarobiose, agarotetraose, agarohexaose, agarooctaose, a mixture thereof, or DGE is administered to a mouse in an amount of 2,000 mg/kg body weight as a single dose. Further, there is no fatal case when the above-described active ingredient is administered orally as a single dose of 2,000 mg/kg body weight to a rat.

[1] = tested on: Intracellular Glutathione (GSH); assay: Enhancing effect on intracellular glutathione (GSH) content in Hepa1c1c7 cells; format: cell-based; details: for GSH content (−fold): 24 hours, relative to water control
Procedure: […] was measured by a partially modified method from a method described in Clarissa Gerhauser et al., Cancer Research 57, 272-278 (1997). Hepa1c1c7 cells were suspended in a Dulbecco-modified Eagle medium containing 10% of fetal bovine serum and 1% of penicillin-streptomycin at 4×10^5 cells/ml. To each well of a 96 well-microtiter plate, 0.2 ml of the cell suspension was added, and cultured at 37° C. overnight in the presence of 5% carbon dioxide gas. Then, the medium in the wells was replaced with a Dulbecco-modified Eagle medium. To each well, 0.4 μl of a solution of a test substance in water was added and then cultured for 24 hours. The agarobiose obtained in Preparation Example 1 and a commercially available agaro-oligosaccharide (trade name: Agaoligo) were used as test substances. For a negative control, water was added in place of a test substance. After completion of the culture, the medium was removed and the cells were washed with a phosphate buffer. The solution was removed, and freeze-thaw of the cells was repeated three times. Thereto was added 0.1 ml of buffer A ([…] sodium phosphate buffer (pH 7.5), 6.3 mM EDTA) to obtain a cell lysate. To 25 it of the cell lysate, 100 al of a reaction solution (25 mM Tris-HCl (pH 7.4), 1 mM G6P, 30 μM NADP, 2 U/ml G6PDH, 0.25 U/ml glutathione reductase (manufactured by Sigma), 0.6 mM DTNB) was added. After incubation at room temperature for 5 minutes, an absorbance at 405 nm was measured. This activity assay was performed in triplicate. At the same time, as a standard, serial 2-fold dilutions of 2 to 200 al of […] were used in place of the cell lysate. The protein content was measured by using a 50-fold dilution of the cell lysate with a phosphate buffer and MicroBCA protein assay kit. The GSH content was expressed as a GSH content relative to the control and calculated by the following formula.
GSH content=[(GSH content in test substance-added section)/(Protein content in test substance-added section)]/[(GSH content in water-added section)/(Protein content in water-added section)]

Quinone Reductase (QR) = assay: Quinone reductase (QR) activity in Hepa1c1c7 cells; format: cell-based; details: for QR activity (fold vs water control): Table 3 (QR activity test), 24 hours; for QR activity (fold vs water control) / QR activity (−fold): relative to water control
Procedure: A QR activity was measured by a partially modified method from a method described in Hans J. Prochaska et al., Analytical Biochemistry 169, 328-336 (1988). Hepa1c1c7 cells were suspended in a Dulbecco-modified Eagle medium containing 10% of fetal bovine serum and 1% of penicillin-streptomycin at 4×10^5 cells/ml. To each well of a 96 well-microtiter plate, 0.2 ml of the cell suspension was added, and cultured at 37° C. overnight in the presence of 5% carbon dioxide gas. Then, the medium in the wells was replaced with a Dulbecco-modified Eagle medium. To each well, 0.4 μl of a solution of a test substance in water was added and then cultured for 24 hours. The agarobiose obtained in Preparation Example 1 and a commercially available agaro-oligosaccharide (trade name: Agaoligo) were used as test substances. For a negative control, water was added in place of a test substance. After completion of the culture, the medium was removed and the cells were washed with a phosphate buffer. Then, 0.1 ml of a cell-lysis solution (2 mM EDTA (pH 7.8), 1% NP-40) was added and incubated at 37° C. for 10 minutes to obtain an enzyme solution. To 25 it of the enzyme solution, 100 it of a reaction solution (25 mM Tris-HCl (pH 7.4), 0.67% BSA, 0.01% Tween 20, 5 μM FAD, 1 mM G6P, 30 μM NADP, 0.3 mg/ml MTT, 2 U/ml G6PDH (manufactured by Sigma)) was added. At this time, a substrate was added or not added. In the case where a substrate was added, menadion (manufactured by Sigma) was further added at a final concentration of 50 μM into the reaction solution. After incubation at room temperature for 30 minutes, 75 μl of 2N Na2CO3 was added to terminate the reaction, and an absorbanc at 590 nm was measured. This activity assay was performed in triplicate. The protein content was measured by using a 50-fold dilution of the enzyme solution with a phosphate buffer and MicroBCA protein assay kit. The QR activity was expressed as a QR activity relative to the control and calculated by the following formula.
QR activity={[(Absorbance in test substance-added section in the presence of substrate)−(Absorbance in test substance-added section in the absence of substrate)]/(Protein content in test substance-added section)}/{[(Absorbance in water-added section in the presence of substrate)−(Absorbance in water-added section in the absence of substrate)]/(Protein content in water-added section)}

[2] = tested on: Glutathione S-transferase (GST); assay: Enhancing effect on glutathione S-transferase (GST) activity in Hepa1c1c7 cells; format: cell-based; details: for GST activity (−fold): relative to water control
Procedure: Hepa1c1c7 cells (ATCC CRL-2026) were suspended in a Dulbecco-modified Eagle medium (manufactured by Sigma) containing 10% of fetal bovine serum (manufactured by MP Biomedicals Co.) and 1% of penicillin-streptomycin (manufactured by Nacalai Tesque, Inc.) at 4×10^5 cells/ml. To each well of a 96 well-microtiter plate, 0.2 ml of the cell suspension was added, and cultured at 37° C. overnight in the presence of 5% carbon dioxide gas. Then, the medium in the wells was replaced with a Dulbecco-modified Eagle medium. To each well, 0.4 μl of a solution of a test substance in water was added and then cultured for 24 hours. The agarobiose obtained in Preparation Example 1 and a commercially available agaro-oligosaccharide (trade name: Agaoligo, manufactured by Takara Bio Inc., containing agarobiose, agarotetraose, agarohexaose and agarooctaose in 20 to 25% each) were used as test substances. For a negative control, water was added in place of a test substance. After completion of the culture, the medium was removed and the cells were washed with a phosphate buffer. Then, 0.1 ml of a cell-lysis solution (10 mM Tris-HCl (pH 7.4), 38.5 mM KCl, and 1 mM EDTA, 1% NP-40) was added and incubated at 37° C. for 10 minutes to obtain an enzyme solution. To 25 μl of the enzyme solution, 155 μl of a reaction solution (0.13 M potassium phosphate buffer solution (pH 6.5), 1.3 mM glutathione) was added. Immediately before measurement, 20 al of 10 mM of CDNB (2,4-dinitrochlorobenzene, manufactured by TOKYO CHEMICAL INDUSTRY CO., LTD.) as a reaction substrate was added, and a change in an absorbance at 340 nm was measured. This activity assay was performed in triplicate. The protein content was measured by using a 50-fold dilution of the enzyme solution with a phosphate buffer and MicroBCA protein assay kit (manufactured by PIERCE Co.). The GST activity was expressed as a GST activity relative to the control and calculated by the following formula.
GST activity=(Maximum rate coefficient in test substance-added section/Protein content in test substance-added section)/(Maximum rate coefficient in water-added section/Protein content in water-added section)
An effect on a GST activity caused by using DGE obtained in Preparation Example 2 was determined in accordance with Example 1. Each measurement was repeated three times. The GST activity was expressed as a GST activity relative to the control and calculated by the same formula as in Example 1.

HL-60 cell = assay: Cancer cell growth suppressing activity using HL-60 cell; format: cell-based; details: HPLC fraction at retention time 4.05 to 4.16 minutes, found to be DGE
Procedure: The neutralized product was subjected to the following normal phase HPLC. Each peak was collected, dried under reduced pressure and then dissolved in water. A cancer cell growth suppressing activity of each fraction was measured using a HL-60 cell.

[3] = 24 hours, final concentration 100 μM
[4] = 24 hours, final concentration 200 μM

agarooctaose
Fatal cases after oral administration (mouse): no fatal case

OC[C@H]1O[C@@H](O[C@H]2[C@H]3OC[C@@H]2O[C@@H](O[C@H]2[C@@H](O)[C@@H](CO)O[C@@H](O[C@H]4[C@H]5OC[C@@H]4OC(O)[C@H]5O)[C@@H]2O)[C@H]3O)[C@H](O)[C@@H](O)[C@H]1O (some centres unmarked) [agarotetraose]
Fatal cases after oral administration (mouse): no fatal case

OC[C@H]1O[C@@H](O[C@H]2[C@H]3OC[C@@H]2OC(O)[C@H]3O)[C@H](O)[C@@H](O)[C@H]1O (mixture of isomers) [Agarobiose, agarobiose]
Effect on GSH content (in words) [1]: significant increase | GSH content (−fold) ([1]; final concentration 100 μM): 1.3 fold | GSH content (−fold) ([1]; final concentration 200 μM): 1.9 fold | Effect on QR activity (in words) (Quinone Reductase (QR)): significant increase | QR activity (fold vs water control) (Quinone Reductase (QR); final concentration 25 μM): 1.4 | QR activity (fold vs water control) (Quinone Reductase (QR); final concentration 50 μM): 1.4 | QR activity (fold vs water control) (Quinone Reductase (QR); final concentration 100 μM): 1.8 | QR activity (fold vs water control) (Quinone Reductase (QR); final concentration 200 μM): 2.2 | Effect on GST activity (in words) [2]: significant increase | GST activity (−fold) ([2]; 24 hours, final concentration 25 μM): 1.4 fold | GST activity (−fold) ([2]; 24 hours, final concentration 50 μM): 1.5 fold | GST activity (−fold) [2, 3]: 1.9 fold | GST activity (−fold) [2, 4]: 1.9 fold | Fatal cases after oral administration (mouse): no fatal case

OC[C@H]1O[C@@H](O)[C@H](O)[C@@H](O[C@@H]2O[C@H]3CO[C@@H]([C@@H]2O)[C@@H]3O[C@@H]2O[C@H](CO)[C@H](O)[C@H](O[C@@H]3O[C@H]4CO[C@@H]([C@@H]3O)[C@@H]4O[C@@H]3O[C@H](CO)[C@H](O)[C@H](O[C@@H]4O[C@H]5CO[C@@H]([C@@H]4O)[C@@H]5O)[C@H]3O)[C@H]2O)[C@H]1O [Neoogarohexaose, neoagarohexaose, reference compound]
Effect on QR activity (in words) (Quinone Reductase (QR)): did not result in a significant increase | QR activity (−fold) (Quinone Reductase (QR); final concentration 100 μM): 1.0 fold | QR activity (−fold) (Quinone Reductase (QR); final concentration 200 μM): 1.1 fold | Effect on GST activity (in words) [2]: did not result in a significant increase | GST activity (−fold) [2, 3]: 1.1 fold | GST activity (−fold) [2, 4]: 1.1 fold

O=C1C=CC(CO)OC1O [DGE, L-glycero-1,5-epoxy-1αβ,6-dihydroxy-cis-hexa-3-en-2-one]
Cancer cell growth suppressing activity (HL-60 cell): had a cancer cell growth suppressing activity | Effect on GST activity (in words) [2]: significant increase | GST activity (−fold) ([2]; final concentration 5 μM): 1.4 fold | GST activity (−fold) ([2]; final concentration 10 μM): 1.4 fold | GST activity (−fold) ([2]; final concentration 20 μM): 1.6 fold | Fatal cases after oral administration (mouse): no fatal case

OC[C@H]1O[C@@H](O[C@H]2[C@H]3OC[C@@H]2O[C@@H](O[C@H]2[C@@H](O)[C@@H](CO)O[C@@H](O[C@H]4[C@H]5OC[C@@H]4O[C@@H](O[C@H]4[C@@H](O)[C@@H](CO)O[C@@H](O[C@H]6[C@H]7OC[C@@H]6OC(O)[C@H]7O)[C@@H]4O)[C@H]5O)[C@@H]2O)[C@H]3O)[C@H](O)[C@@H](O)[C@H]1O (mixture of isomers) [agarohexaose]
Fatal cases after oral administration (mouse): no fatal case
